Where two headings read alike, the source gives them in different places.
Assays:
Format in all cases: in vivo
Aphis craccivoral = experiment: Insecticidal activities to aphids, immersion method; conditions: for Aphis craccivoral Mortality (%) 500 ppm: in vivo; for mortality at 500 ppm: Aphis, read-out: Aphis craccivoral Mortality (%) 500 ppm
How it was run: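 Immersion assay: compound diluted from 10 g/L DMF stock to 500 ppm in 0.2 mL/L Triton X-100, sprout-feeding wingless adults dipped 5 s. Kept at 23° C, three repeats; 24 h mortality calculated relative to surviving Triton-treated controls.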

Nilaparvata lugens = experiment: Insecticidal activities to plant hopper, spraying method; conditions: for Nilaparvata lugens Mortality (%) 500 ppm: in vivo; for mortality at 500 ppm: Nilaparvata lugens, read-out: Nilaparvata lugens Mortality (%) 500 ppm
How it was run: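 Spray test: acetone solutions of 500 down to 0.79 ppm, 2 ml per tumbler holding 10 planthoppers introduced 6 h earlier, triplicate, aqueous acetone as control. Mortality at 24 h calculated from survivors relative to control.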

[1] = test system: Pseudaletia separate Walker; experiment: Insecticidal activities to armyworm, leaf dipping and feeding
Experimental: (§1) Mortality (%)=(the number of the survival aphis in control group−the number of the survival aphis in the treatment group)/the number of the survival aphis in control group×100%
(3): Insecticidal Activities to Armyworm
Armyworm (Pseudaletia separate Walker) was tested by the way of leaf dipping and feeding. The test compound was exactly formulated with acetone into solutions having concentrations of 500, 250, 100, 50, 25, 12.5, 6.25, 3.13 and 1.57 ppm, respectively. Aqueous acetone solution was used as control. Fresh maize leaves were immersed in the solution for 3 seconds, dried at room temperature, and fed to the tested insects. Each treatment was tested with 10 insects and repeated for 3 tumblers (3 times). The number of killed insects was counted after 24 hours to calculate the mortality according to the above mentioned formula.

Plutella xylostella = experiment: Insecticidal activities to diamondback moth, feeding dipped leaves; conditions: for Plutella xylostella Mortality (%) 500 ppm: in vivo; for mortality at 500 ppm: Plutella xylostella, read-out: Plutella xylostella Mortality (%) 500 ppm
Experimental: as §1
(4): Insecticidal Activities to Diamondback Moth
Diamondback moth (Plutella xylostella) was tested by the way of feeding dippedleaves. Fresh cabbage leaves were immersed in above mentioned solution for 3 seconds, dried at room temperature, and fed to the tested insects. Each treatment was tested with 10 insects and repeated for 3 tumblers (3 times), while water was used as control. The number of killed insects was counted after 24 hours to calculate the mortality according to the above mentioned formula.

[2] = 500 ppm, leaf dipping and feeding, counted after 24 hours

| SMILES | Aphis craccivoral Mortality (%) 500 ppm (Aphis craccivoral) [%] | Nilaparvata lugens Mortality (%) 500 ppm (Nilaparvata lugens) [%] | Pseudaletia separate Walker Mortality (%) 500 ppm ([1]; in vivo) [%] | Plutella xylostella Mortality (%) 500 ppm (Plutella xylostella) [%] | further results |
| --- | --- | --- | --- | --- | --- |
| C[N+]1=C(C(=Cc2ccsc2)[N+](=O)[O-])N(Cc2cnc(Cl)s2)CC1.[Cl-] [Compound 281] | 100 | 100 | 100 | 100 | – |
| CCN(Cc1ccc(Cl)nc1)C(=N\C)/C(=C\c1ccco1)[N+](=O)[O-] [Compound 151, N-((6-chloropyridin-3-yl)methyl)-N-ethyl-3-(furan-2-yl)-N′-methyl-2-nitro acrylamidine] | – | – | – | – | mortality at 500 ppm (Aphis craccivoral; 24 h): 76%; mortality at 500 ppm (Nilaparvata lugens; 24 h): 87%; mortality at 500 ppm ([1]; Zea mays, foliar, 24 h, read-out: Pseudaletia separate Walker Mortality (%) 500 ppm): 86%; mortality at 500 ppm (Plutella xylostella; in Brassica oleracea, 24 h): 79% |
| O=[N+]([O-])C(=Cc1ccc(CO)o1)C1=NCCN1Cc1cnc(Cl)s1 [Compound 82] | 100 | 100 | 100 | 100 | – |
| O=[N+]([O-])/C(=C/c1ccco1)C1=NCCN1Cc1ccc(Cl)nc1 [Compound 1, 2-chloro-5-((2-(2-(furan-2-yl)-1-nitrovinyl)-4,5-dihydroimidazol-1-yl)-methyl) pyridine] | – | – | – | – | mortality at 500 ppm (Aphis craccivoral; 500 ppm, immersion method): 100%; mortality at 500 ppm (Nilaparvata lugens; 500 ppm, spraying method, counted after 24 hours): 100%; Pseudaletia separate Walker Mortality (%) 500 ppm [1, 2]: 100%; mortality at 500 ppm (Plutella xylostella; 500 ppm, feeding dipped leaves, counted after 24 hours): 100% |
| C[N+]1=C(C(=Cc2ccsc2)[N+](=O)[O-])N(Cc2ccc(Cl)nc2)CC1.[Cl-] [Compound 260] | 90 | 92 | 80 | 89 | – |
| Cc1csc(C=C(C2=[N+](C)CCN2Cc2ccc(Cl)nc2)[N+](=O)[O-])c1.[Cl-] [Compound 271] | 100 | 100 | 100 | 100 | – |
| N#CC(=Cc1ccc(CO)o1)C1=NCCN1Cc1ccc(Cl)nc1 [Compound 145] | 92 | 100 | 100 | 100 | – |
| O=[N+]([O-])C(=Cc1cc(Cl)co1)C1=NCCN1Cc1cnc(Cl)s1 [Compound 73] | 100 | 100 | 100 | 100 | – |
| Cc1ccc(C=C(C2=[N+](C)CCN2Cc2ccc(Cl)nc2)[N+](=O)[O-])o1.[Cl-] [Compound 255] | 100 | 100 | 100 | 100 | – |
| O=[N+]([O-])C(=Cc1cnc(Cl)s1)C1=NCCN1Cc1ccc(Cl)nc1 [Compound 35] | 100 | 100 | 100 | 100 | – |
| O=[N+]([O-])C(=Cc1ccccn1)C1=NCCN1Cc1ccc(Cl)nc1 [Compound 37] | 34 | 56 | 57 | 50 | – |
| O=[N+]([O-])C(=Cc1ccc(Br)o1)C1=NCCN1Cc1ccc(Cl)nc1 [Compound 5] | 100 | 100 | 100 | 100 | – |
| C[N+]1=C(C(=Cc2ccc(CO)o2)[N+](=O)[O-])N(Cc2ccc(Cl)nc2)CC1.[Cl-] [Compound 258] | 100 | 100 | 100 | 100 | – |
| O=[N+]([O-])/C(=C/c1ccc([N+](=O)[O-])o1)C1=NCCN1Cc1cnc(Cl)s1 [Compound 70] | – | – | – | – | mortality at 500 ppm (Aphis craccivoral): 100%; mortality at 500 ppm (Nilaparvata lugens; 24 h): 100%; Pseudaletia separate Walker Mortality (%) 500 ppm [1, 2]: 98%; mortality at 500 ppm (Plutella xylostella; 24 h): 100% |
| CCc1ccc(C=C(C2=NCCN2Cc2ccc(Cl)nc2)[N+](=O)[O-])s1 [Compound 29] | 100 | 100 | 100 | 100 | – |
| O=[N+]([O-])C(=Cc1ccc(Cl)nc1)C1=NCCN1Cc1ccc(Cl)nc1 [Compound 40] | 45 | 44 | 67 | 56 | – |
| CC[N+]1=C(C(=Cc2ccc([N+](=O)[O-])o2)[N+](=O)[O-])N(Cc2ccc(Cl)nc2)CC1.[Cl-] [Compound 287] | 100 | 100 | 100 | 100 | – |
| Cc1ccc(C=C(C2=NCCN2Cc2cnc(Cl)s2)[N+](=O)[O-])o1 [Compound 79] | 100 | 100 | 100 | 100 | – |
| O=[N+]([O-])C(=Cc1oc(Cl)cc1Cl)C1=NCCN1CC1CCOC1 (stereo not drawn) [Compound 99] | 87 | 97 | 100 | 100 | – |
| O=[N+]([O-])C(=Cc1ccccc1O)C1=NCCN1Cc1ccc(Cl)nc1 [Compound 45] | 56 | 76 | 89 | 23 | – |
| Cc1ccc(C=C(C2=NCCCN2Cc2ccc(Cl)nc2)[N+](=O)[O-])o1 [Compound 57] | 100 | 78 | 100 | 100 | – |
| O=[N+]([O-])C(=Cc1cc(Br)c(Br)o1)C1=NCCN1Cc1ccc(Cl)nc1 [Compound 10] | 100 | 100 | 100 | 100 | – |
| O=[N+]([O-])C(=Cc1cc(Br)co1)C1=NCCCN1Cc1ccc(Cl)nc1 [Compound 52] | 100 | 100 | 100 | 100 | – |
| CC(=C(C1=NCCN1Cc1ccc(Cl)nc1)[N+](=O)[O-])c1ccc(C)o1 [Compound 114] | 92 | 100 | 10 | 30 | – |
| O=[N+]([O-])C(=Cc1cc(Br)cs1)C1=NCCCN1Cc1ccc(Cl)nc1 [Compound 67] | 65 | 83 | 90 | 100 | – |
| O=[N+]([O-])C(=Cc1ccc(Cl)s1)C1=NCCN1Cc1cnc(Cl)s1 [Compound 86] | 100 | 100 | 100 | 100 | – |
| O=[N+]([O-])C(=Cc1cc(Br)c(Br)o1)C1=NCCN1Cc1cnc(Cl)s1 [Compound 77] | 100 | 100 | 100 | 100 | – |
| CC(=C(C1=NCCN1Cc1ccc(Cl)nc1)[N+](=O)[O-])c1ccc([N+](=O)[O-])o1 [Compound 113] | 80 | 100 | 100 | 100 | – |
| CC(=C(C1=NCCN1Cc1ccc(Cl)nc1)[N+](=O)[O-])c1ccc([N+](=O)[O-])s1 [Compound 117] | 83 | 88 | 77 | 86 | – |
| O=[N+]([O-])C(=Cc1cc(Cl)c(Cl)o1)C1=NCCN1Cc1cnc(Cl)s1 [Compound 75] | 100 | 100 | 100 | 100 | – |

From patent US8232407B2, “Nitrogenous heterocyclic compounds with insecticidal activity, and the preparation and use thereof” (East China University of Science and Technology, priority 2008, dated 2012)
